As usually defined, the IC50 is the point on the concentration scale where inhibition reaches its midpoint.

Drawing on US10112954B2, “Bicyclic heteroaryl derivatives having inhibitory activity for protein kinase” (HANMI PHARM. CO., LTD., priority 2010, dated 2018), this text covers IC50 for one compound.

Holding throughout (type): biochemical
One assay deals with T1, FGFR1 (Homo sapiens, UniProt P11362).
T1 construct: purchased Upstate Company
Kind of assay: Inhibition of FGFR1 kinase (fluorescence polarization kinase assay). The note with it: Table 3; read-out: IC50 (nM) FGFR1. How it is done: (§1) Inhibition activities of kinases of the inventive compounds (test compounds) prepared in the Examples were assessed and represented as IC50 values.
(§2) Kinases used in Test Examples 1 to 3 were purchased from Upstate Company.
(§3) 100 mM HEPES (pH 7.4), 25 mM MgCl2, 10 mM MnCl2 and 250 μM Na3VO4 were mixed to prepare a kinase buffer. Each of kinases to be measured was diluted to a concentration of 25˜300 ng per one reaction according to its activity with the kinase buffer. Also, each of the test compounds was serially diluted to a concentration starting from 100 nM up to 0.1 nM with the kinase buffer. 10 μl of the serially diluted solution of each of the test compounds and 10 μl of the diluted kinase were added to each well of a 96-well microplate, and the plate was incubated at room temperature for 10 mins. 10 μl of a substrate and 10 μl of ATP were successively added thereto to initiate a kinase reaction, and the resulting mixture was incubated at room temperature for 1 hour. The ATP was used in a form of a solution diluted to a concentration determined according to a kinase's Km value with distilled water. 10˜100 ng/mL poly(Glu, Tyr) 4:1 (Sigma) was used as the substrate. 10 μl of 6 mM EDTA was added to each well and stirred for 5 mins to terminate the kinase reaction. For a measurement of phosphorylation degree, 50 μl of a solution containing anti-phosphotyrosine antibody and fluorescein-labeled phosphopeptide was added to the reaction mixture, followed by incubating for 30 mins. The FP (fluorescence polarization) value of each well was determined with a Victor™ D fluorescence meter (Perkin Elmer Lifesciences).
(§4) IC50, the concentration at which 50% inhibition occurs, was evaluated based on the difference between the final concentration of the test cells and the initial concentration of the cells incubated in a well not-treated with the test compound which was regarded as 100%. IC50 values of the test compounds on the FGFR kinase were shown in Table 2, and those of the test compound obtained in Example 177 on various kinases, in Table 3.
Background: Fluorescence polarisation rises when a labelled molecule tumbles more slowly, as on binding a larger partner.

A further assay deals with T2, FGFR3 (Homo sapiens, UniProt P22607).
T2 construct: purchased Upstate Company
Put plainly: Inhibition of FGFR3 kinase (fluorescence polarization kinase assay). Particulars: Table 3; read-out: IC50 (nM) FGFR3. How it is done: as §1, §2, §3, §4

A further assay deals with T3, EGFR (Homo sapiens, UniProt P00533).
T3 construct: purchased Upstate Company
Put plainly: Inhibition of EGFR (Her1) kinase. Particulars: Table 3. As to the method:
as §1, §2
as §3, with “10 μl of 6 mM EDTA was added to each well and stirred for 5 mins to terminate the kinase reaction. For a measurement of phosphorylation degree, 50 μl of a solution containing anti-phosphotyrosine antibody and fluorescein-labeled phosphopeptide was added to the reaction mixture, followed by incubating for 30 mins.” left out, “Lifesciences). […]” for “Lifesciences).”

The next assay has as its target T4, Her2 (Homo sapiens, UniProt P04626).
T4 construct: purchased Upstate Company
Put plainly: Inhibition of Her2 kinase. The note with it: Table 3. How it is done:
as §1, §2
as §3, with “10 μl of 6 mM EDTA was added to each well and stirred for 5 mins to terminate the kinase reaction. For a measurement of phosphorylation degree, 50 μl of a solution containing anti-phosphotyrosine antibody and fluorescein-labeled phosphopeptide was added to the reaction mixture, followed by incubating for 30 mins.” left out, “Lifesciences). […]” for “Lifesciences).”

For another assay, the target named is T5, Flt1 (Homo sapiens, UniProt P17948).
T5 construct: purchased Upstate Company
Kind of assay: Inhibition of Flt1 kinase. The note with it: Table 3. How it is done:
as §1, §2
as §3, with “10 μl of 6 mM EDTA was added to each well and stirred for 5 mins to terminate the kinase reaction. For a measurement of phosphorylation degree, 50 μl of a solution containing anti-phosphotyrosine antibody and fluorescein-labeled phosphopeptide was added to the reaction mixture, followed by incubating for 30 mins.” left out, “Lifesciences). […]” for “Lifesciences).”

The next assay deals with T6, KDR (Homo sapiens, UniProt P35968).
T6 construct: purchased Upstate Company
Kind of assay: Inhibition of KDR kinase. The note with it: Table 3. As to the method: as §1, §2
as §3, with “10 μl of 6 mM EDTA was added to each well and stirred for 5 mins to terminate the kinase reaction. For a measurement of phosphorylation degree, 50 μl of a solution containing anti-phosphotyrosine antibody and fluorescein-labeled phosphopeptide was added to the reaction mixture, followed by incubating for 30 mins.” left out, “Lifesciences). […]” for “Lifesciences).”

The next assay concerns the target T7, Flt3 (Homo sapiens, UniProt P36888).
T7 construct: purchased Upstate Company
T7 sequence (P36888 27-993): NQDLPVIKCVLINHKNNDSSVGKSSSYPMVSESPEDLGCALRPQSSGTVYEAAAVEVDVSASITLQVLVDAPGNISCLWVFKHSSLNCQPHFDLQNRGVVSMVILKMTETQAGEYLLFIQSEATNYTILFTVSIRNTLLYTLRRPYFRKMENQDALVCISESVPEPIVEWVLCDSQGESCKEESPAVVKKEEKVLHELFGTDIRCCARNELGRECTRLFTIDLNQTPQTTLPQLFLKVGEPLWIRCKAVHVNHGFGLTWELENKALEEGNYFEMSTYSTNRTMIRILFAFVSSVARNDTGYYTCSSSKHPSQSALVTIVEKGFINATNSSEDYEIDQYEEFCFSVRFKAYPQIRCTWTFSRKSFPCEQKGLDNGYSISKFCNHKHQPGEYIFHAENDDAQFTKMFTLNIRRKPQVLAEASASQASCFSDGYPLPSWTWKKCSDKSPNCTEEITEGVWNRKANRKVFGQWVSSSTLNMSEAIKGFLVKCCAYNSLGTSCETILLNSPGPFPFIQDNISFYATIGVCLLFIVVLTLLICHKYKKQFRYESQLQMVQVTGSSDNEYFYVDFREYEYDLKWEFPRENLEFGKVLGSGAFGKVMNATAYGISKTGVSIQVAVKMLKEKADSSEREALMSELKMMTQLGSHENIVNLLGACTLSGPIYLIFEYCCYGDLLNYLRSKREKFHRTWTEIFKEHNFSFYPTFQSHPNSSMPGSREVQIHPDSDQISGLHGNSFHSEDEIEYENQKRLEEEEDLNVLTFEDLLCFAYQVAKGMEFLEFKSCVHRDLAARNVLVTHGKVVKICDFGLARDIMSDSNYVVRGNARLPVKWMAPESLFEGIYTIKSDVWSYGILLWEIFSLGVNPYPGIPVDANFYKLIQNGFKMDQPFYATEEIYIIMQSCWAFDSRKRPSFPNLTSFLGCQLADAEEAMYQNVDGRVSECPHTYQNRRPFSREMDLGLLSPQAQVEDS
Put plainly: Inhibition of Flt3 kinase. Particulars: Table 3. As to the method: as §1, §2
as §3, with “10 μl of 6 mM EDTA was added to each well and stirred for 5 mins to terminate the kinase reaction. For a measurement of phosphorylation degree, 50 μl of a solution containing anti-phosphotyrosine antibody and fluorescein-labeled phosphopeptide was added to the reaction mixture, followed by incubating for 30 mins.” left out, “Lifesciences). […]” for “Lifesciences).”

A further assay deals with T8, PDGFRα (Homo sapiens, UniProt P16234).
T8 construct: purchased Upstate Company
Put plainly: Inhibition of PDGFRα kinase. Particulars: Table 3. How it is done:
as §1, §2
as §3, with “10 μl of 6 mM EDTA was added to each well and stirred for 5 mins to terminate the kinase reaction. For a measurement of phosphorylation degree, 50 μl of a solution containing anti-phosphotyrosine antibody and fluorescein-labeled phosphopeptide was added to the reaction mixture, followed by incubating for 30 mins.” left out, “Lifesciences). […]” for “Lifesciences).”

The target in another assay is T9, PDGFRβ (Homo sapiens, UniProt P09619).
T9 construct: purchased Upstate Company
Kind of assay: Inhibition of PDGFRβ kinase. Particulars: Table 3. As to the method: as §1, §2
as §3, with “10 μl of 6 mM EDTA was added to each well and stirred for 5 mins to terminate the kinase reaction. For a measurement of phosphorylation degree, 50 μl of a solution containing anti-phosphotyrosine antibody and fluorescein-labeled phosphopeptide was added to the reaction mixture, followed by incubating for 30 mins.” left out, “Lifesciences). […]” for “Lifesciences).”

Another assay deals with T10, Fms (Homo sapiens, UniProt P07333).
T10 construct: purchased Upstate Company
Put plainly: Inhibition of Fms kinase. Particulars: Table 3. How it is done: as §1, §2
as §3, with “10 μl of 6 mM EDTA was added to each well and stirred for 5 mins to terminate the kinase reaction. For a measurement of phosphorylation degree, 50 μl of a solution containing anti-phosphotyrosine antibody and fluorescein-labeled phosphopeptide was added to the reaction mixture, followed by incubating for 30 mins.” left out, “Lifesciences). […]” for “Lifesciences).”

The target of the next assay is T11, Kit (Homo sapiens, UniProt P10721).
T11 construct: purchased Upstate Company
Put plainly: Inhibition of Kit kinase. Particulars: Table 3. As to the method: as §1, §2
as §3, with “10 μl of 6 mM EDTA was added to each well and stirred for 5 mins to terminate the kinase reaction. For a measurement of phosphorylation degree, 50 μl of a solution containing anti-phosphotyrosine antibody and fluorescein-labeled phosphopeptide was added to the reaction mixture, followed by incubating for 30 mins.” left out, “Lifesciences). […]” for “Lifesciences).”

The target of the next assay is T12, Ret (Homo sapiens, UniProt P07949).
T12 construct: purchased Upstate Company
Kind of assay: Inhibition of Ret kinase. Particulars: Table 3. As to the method:
as §1, §2
as §3, with “10 μl of 6 mM EDTA was added to each well and stirred for 5 mins to terminate the kinase reaction. For a measurement of phosphorylation degree, 50 μl of a solution containing anti-phosphotyrosine antibody and fluorescein-labeled phosphopeptide was added to the reaction mixture, followed by incubating for 30 mins.” left out, “Lifesciences). […]” for “Lifesciences).”

For another assay, the target named is T13, Tie2 (Homo sapiens, UniProt Q02763).
T13 construct: purchased Upstate Company
Kind of assay: Inhibition of Tie2 kinase. Particulars: Table 3. How it is done: as §1, §2
as §3, with “10 μl of 6 mM EDTA was added to each well and stirred for 5 mins to terminate the kinase reaction. For a measurement of phosphorylation degree, 50 μl of a solution containing anti-phosphotyrosine antibody and fluorescein-labeled phosphopeptide was added to the reaction mixture, followed by incubating for 30 mins.” left out, “Lifesciences). […]” for “Lifesciences).”

The target in a further assay is T14, Met (Homo sapiens, UniProt P08581).
T14 construct: purchased Upstate Company
Kind of assay: Inhibition of Met kinase. The note with it: Table 3. How it is done: as §1, §2
as §3, with “10 μl of 6 mM EDTA was added to each well and stirred for 5 mins to terminate the kinase reaction. For a measurement of phosphorylation degree, 50 μl of a solution containing anti-phosphotyrosine antibody and fluorescein-labeled phosphopeptide was added to the reaction mixture, followed by incubating for 30 mins.” left out, “Lifesciences). […]” for “Lifesciences).”

The next assay has as its target T15, Src (Homo sapiens, UniProt P12931).
T15 construct: purchased Upstate Company
Put plainly: Inhibition of Src kinase (Profluor Src kinase assay kit). Particulars: Table 3. How it is done: as §1, §2
(§5) An inhibition activity of Src kinase was determined with an Src kinase assay kit (Profluor™, Promega). Each of kinases to be measured was diluted to a concentration of 25 ng per one reaction with the kinase buffer provided in the kit. Also, each of the test compounds was serially diluted to a concentration starting from 100 μM up to 0.1 nM with 10% DMSO. 5 μl of the serially diluted solution of each of the test compounds and 20 μl of the diluted kinase were added to each well of a 96-well microplate, and the plate was incubated at room temperature for 10 mins. 25 μl of ATP was added thereto, followed by incubating for 1 hour, and a protease solution was added thereto, followed by incubating for 1 hour. 25 μl of a stabilizer solution was added to the resulting solution, followed by incubating in dark for 5 mins. The absorbance of each well was determined with a fluorescence reader (Molecular Devices) (excitation wavelength: 485 nm, emission wavelength: 530 nm). […]

In the next assay the target is T16, Lck (Homo sapiens, UniProt P06239).
T16 construct: purchased Upstate Company
Kind of assay: Inhibition of Lck kinase (Profluor kit procedure). Particulars: Table 3. As to the method:
as §1, §2, §5

Another assay has as its target T17, Fyn (Homo sapiens, UniProt P06241).
T17 construct: purchased Upstate Company
Kind of assay: Inhibition of Fyn kinase (Profluor kit procedure). The note with it: Table 3. As to the method:
as §1, §2, §5

In another assay the target is T18, Lyn (Homo sapiens, UniProt P07948).
T18 construct: purchased Upstate Company
Put plainly: Inhibition of Lyn kinase (Profluor kit procedure). The note with it: Table 3. How it is done: as §1, §2, §5

T6 sequence (P35968 20-1356, species assumed): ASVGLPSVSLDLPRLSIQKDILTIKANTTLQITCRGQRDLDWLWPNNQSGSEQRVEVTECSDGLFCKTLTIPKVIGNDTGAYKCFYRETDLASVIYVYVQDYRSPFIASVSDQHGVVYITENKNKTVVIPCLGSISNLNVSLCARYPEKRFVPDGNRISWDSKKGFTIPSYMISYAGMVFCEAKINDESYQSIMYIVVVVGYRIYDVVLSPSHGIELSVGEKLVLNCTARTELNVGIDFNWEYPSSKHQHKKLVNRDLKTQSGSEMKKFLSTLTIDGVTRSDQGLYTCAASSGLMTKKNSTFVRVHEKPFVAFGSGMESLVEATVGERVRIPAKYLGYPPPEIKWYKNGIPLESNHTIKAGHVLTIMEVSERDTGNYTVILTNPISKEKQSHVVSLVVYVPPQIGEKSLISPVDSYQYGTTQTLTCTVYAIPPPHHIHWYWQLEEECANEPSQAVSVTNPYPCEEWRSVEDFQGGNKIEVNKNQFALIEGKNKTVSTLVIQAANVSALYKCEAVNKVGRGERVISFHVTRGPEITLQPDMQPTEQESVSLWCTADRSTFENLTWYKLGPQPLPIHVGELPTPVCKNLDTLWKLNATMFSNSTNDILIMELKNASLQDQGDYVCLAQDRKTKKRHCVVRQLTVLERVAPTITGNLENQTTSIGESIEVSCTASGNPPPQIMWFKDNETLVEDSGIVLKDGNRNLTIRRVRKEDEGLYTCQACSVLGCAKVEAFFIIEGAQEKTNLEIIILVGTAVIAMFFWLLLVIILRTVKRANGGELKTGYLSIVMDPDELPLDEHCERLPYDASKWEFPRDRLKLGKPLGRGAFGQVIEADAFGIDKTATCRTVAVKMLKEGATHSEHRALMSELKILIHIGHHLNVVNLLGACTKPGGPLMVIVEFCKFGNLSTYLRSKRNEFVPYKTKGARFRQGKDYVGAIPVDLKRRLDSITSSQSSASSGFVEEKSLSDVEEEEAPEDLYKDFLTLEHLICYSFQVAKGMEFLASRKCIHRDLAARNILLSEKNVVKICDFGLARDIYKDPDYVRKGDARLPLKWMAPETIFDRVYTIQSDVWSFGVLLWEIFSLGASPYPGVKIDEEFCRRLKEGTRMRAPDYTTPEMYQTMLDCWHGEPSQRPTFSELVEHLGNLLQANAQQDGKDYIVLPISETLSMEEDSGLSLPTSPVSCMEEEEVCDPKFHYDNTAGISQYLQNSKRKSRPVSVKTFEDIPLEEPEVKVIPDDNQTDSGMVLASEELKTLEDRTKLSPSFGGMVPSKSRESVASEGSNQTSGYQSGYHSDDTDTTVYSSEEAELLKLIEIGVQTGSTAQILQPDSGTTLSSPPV
T4 sequence (P04626 23-1255, species assumed): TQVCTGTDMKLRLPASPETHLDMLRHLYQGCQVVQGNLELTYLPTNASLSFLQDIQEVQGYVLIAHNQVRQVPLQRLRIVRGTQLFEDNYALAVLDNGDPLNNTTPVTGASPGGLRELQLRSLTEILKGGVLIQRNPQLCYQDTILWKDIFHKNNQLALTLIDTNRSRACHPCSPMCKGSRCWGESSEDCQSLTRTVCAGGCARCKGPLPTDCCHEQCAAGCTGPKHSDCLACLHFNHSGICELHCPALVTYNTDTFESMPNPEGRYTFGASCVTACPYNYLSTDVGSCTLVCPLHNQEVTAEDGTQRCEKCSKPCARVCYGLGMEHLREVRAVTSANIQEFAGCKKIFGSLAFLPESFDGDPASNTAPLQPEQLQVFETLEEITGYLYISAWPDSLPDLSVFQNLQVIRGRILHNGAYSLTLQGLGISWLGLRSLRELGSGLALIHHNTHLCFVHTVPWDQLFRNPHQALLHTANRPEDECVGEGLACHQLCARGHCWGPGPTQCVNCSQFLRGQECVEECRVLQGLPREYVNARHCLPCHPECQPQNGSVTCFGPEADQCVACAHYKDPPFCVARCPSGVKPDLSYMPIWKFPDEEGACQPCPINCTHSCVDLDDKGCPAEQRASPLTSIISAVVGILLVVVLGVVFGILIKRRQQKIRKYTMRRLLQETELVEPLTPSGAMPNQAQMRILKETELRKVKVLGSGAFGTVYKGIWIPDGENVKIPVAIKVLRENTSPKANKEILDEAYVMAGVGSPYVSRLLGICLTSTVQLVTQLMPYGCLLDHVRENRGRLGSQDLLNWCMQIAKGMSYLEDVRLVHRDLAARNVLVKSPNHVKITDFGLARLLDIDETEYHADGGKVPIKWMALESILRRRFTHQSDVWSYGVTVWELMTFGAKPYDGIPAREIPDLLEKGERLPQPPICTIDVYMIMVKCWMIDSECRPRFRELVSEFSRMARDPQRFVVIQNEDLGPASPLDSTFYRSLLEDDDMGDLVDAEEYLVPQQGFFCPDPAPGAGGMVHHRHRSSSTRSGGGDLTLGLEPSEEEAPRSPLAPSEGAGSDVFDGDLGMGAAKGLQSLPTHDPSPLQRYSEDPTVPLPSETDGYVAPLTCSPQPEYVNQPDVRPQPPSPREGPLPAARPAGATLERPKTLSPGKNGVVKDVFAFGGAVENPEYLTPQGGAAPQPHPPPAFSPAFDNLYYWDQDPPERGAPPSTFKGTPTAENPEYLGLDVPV
T9 sequence (P09619 33-1106, species assumed): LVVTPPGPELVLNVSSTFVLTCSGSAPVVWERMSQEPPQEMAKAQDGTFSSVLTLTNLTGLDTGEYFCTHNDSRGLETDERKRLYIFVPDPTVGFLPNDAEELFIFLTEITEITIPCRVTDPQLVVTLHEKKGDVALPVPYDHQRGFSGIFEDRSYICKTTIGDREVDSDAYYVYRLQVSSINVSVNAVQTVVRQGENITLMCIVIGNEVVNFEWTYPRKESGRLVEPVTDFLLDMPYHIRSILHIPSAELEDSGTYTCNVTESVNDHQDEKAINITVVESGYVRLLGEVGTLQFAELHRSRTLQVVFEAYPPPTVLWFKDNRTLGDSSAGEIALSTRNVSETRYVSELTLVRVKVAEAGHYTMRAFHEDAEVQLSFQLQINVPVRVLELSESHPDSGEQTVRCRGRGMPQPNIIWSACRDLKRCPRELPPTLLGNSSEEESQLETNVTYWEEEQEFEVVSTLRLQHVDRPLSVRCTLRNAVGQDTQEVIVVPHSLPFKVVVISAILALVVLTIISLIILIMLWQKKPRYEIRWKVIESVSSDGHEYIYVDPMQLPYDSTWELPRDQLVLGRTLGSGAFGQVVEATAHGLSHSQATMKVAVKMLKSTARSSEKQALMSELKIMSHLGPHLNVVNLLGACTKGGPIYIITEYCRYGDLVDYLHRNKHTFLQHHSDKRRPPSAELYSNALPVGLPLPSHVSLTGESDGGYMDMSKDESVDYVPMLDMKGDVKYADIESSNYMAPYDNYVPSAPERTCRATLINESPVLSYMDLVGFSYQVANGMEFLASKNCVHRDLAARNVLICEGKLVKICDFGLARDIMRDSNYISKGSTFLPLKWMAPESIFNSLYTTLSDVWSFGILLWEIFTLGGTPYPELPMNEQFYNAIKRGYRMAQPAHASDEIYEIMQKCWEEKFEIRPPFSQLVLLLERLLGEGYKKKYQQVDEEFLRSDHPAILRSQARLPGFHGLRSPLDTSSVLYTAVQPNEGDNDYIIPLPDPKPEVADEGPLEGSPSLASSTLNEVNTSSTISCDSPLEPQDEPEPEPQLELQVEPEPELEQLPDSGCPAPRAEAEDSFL
T8 sequence (P16234 24-1089, species assumed): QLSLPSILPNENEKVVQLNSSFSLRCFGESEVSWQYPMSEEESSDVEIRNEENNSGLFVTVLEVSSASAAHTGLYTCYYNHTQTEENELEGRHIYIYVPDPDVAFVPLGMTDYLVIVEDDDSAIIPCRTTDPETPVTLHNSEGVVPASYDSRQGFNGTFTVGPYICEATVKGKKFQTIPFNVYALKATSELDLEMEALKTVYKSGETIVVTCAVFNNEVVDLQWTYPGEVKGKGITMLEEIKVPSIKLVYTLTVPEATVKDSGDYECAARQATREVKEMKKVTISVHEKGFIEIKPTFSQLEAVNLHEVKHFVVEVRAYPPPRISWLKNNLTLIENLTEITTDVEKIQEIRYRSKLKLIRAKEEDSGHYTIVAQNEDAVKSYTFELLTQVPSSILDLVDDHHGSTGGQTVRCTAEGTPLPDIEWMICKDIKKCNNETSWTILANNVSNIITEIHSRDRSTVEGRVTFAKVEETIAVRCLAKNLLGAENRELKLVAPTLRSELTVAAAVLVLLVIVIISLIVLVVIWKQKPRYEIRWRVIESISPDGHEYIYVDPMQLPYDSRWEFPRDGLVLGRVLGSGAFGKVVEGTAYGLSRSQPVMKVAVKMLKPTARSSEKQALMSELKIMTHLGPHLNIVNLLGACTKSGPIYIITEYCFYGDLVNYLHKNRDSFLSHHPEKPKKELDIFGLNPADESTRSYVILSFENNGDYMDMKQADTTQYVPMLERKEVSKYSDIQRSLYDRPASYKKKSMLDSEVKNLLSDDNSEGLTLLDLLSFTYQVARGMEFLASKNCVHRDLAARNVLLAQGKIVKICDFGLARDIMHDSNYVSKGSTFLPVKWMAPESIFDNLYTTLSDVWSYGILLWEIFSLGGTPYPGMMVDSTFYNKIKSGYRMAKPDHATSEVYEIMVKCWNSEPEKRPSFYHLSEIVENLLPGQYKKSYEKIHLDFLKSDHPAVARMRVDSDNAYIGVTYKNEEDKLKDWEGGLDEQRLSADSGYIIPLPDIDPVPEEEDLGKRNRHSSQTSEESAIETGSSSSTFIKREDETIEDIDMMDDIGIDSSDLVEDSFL

Take `COc1cc(OC)c(Cl)c(NC(=O)c2csc3c(NC(=O)C4CC4)ncnc23)c1Cl` [Example 177, 4-(cyclopropanecarbox-amido)-N-(2,6-dichloro-3,5-dimethoxyphenyl) thieno[3,2-d]pyrimidine-7-carboxamide]: the IC50 at FGFR1 was below 100 nM; on FGFR3 it was below 100 nM; at EGFR it was above 1000 nM; against Her2, above 1000 nM; at Flt1 it was above 1000 nM; against KDR, below 200 nM. Besides, the IC50 was above 1000 nM against Flt3; above 1000 nM against PDGFRα; above 1000 nM against PDGFRβ; below 200 nM on Fms; above 1000 nM on Kit; above 1000 nM at Ret. In addition, the half-inhibitory concentration (IC50) against Tie2, against Met, against Src, on Lck, against Fyn and against Lyn was above 1000 nM each time.
